The record followed here is ChEMBL document CHEMBL4602659, “β,β-Dimethylacrylshikonin Induces Apoptosis in Melanoma Cell Lines by NOXA Upregulation” (J Nat Prod, 2020).

The test system of assay [1] is WM164. Nature of the assay: Induction of apoptosis in human WM164 cells assessed as early apoptotic cells at IC50 concentration after 6 hrs by Annexin V/SYTOX Green based flow cytometric analysis (reference value: 3.01%). The assay is classed as functional. (In flow cytometry, cells or beads pass a laser one at a time.)
Assay [2] concerns MUGMel1. Kind of assay: Induction of apoptosis in human MUGMel1 cells assessed as effect on BAX protein expression at IC50 concentration after 24 hrs by Western blot analysis. The assay is classed as functional, cell-based.
The test system of assay [3] is SBcl2. Nature of the assay: Induction of apoptosis in human SBcl2 cells assessed as late apoptotic cells at IC50 concentration after 6 hrs by Annexin V/SYTOX Green based flow cytometric analysis (reference value: 14.91%). The assay is classed as functional.
The subject of assay [4] is WM793. Kind of assay: Induction of apoptosis in human WM793 cells assessed as necrotic cells at IC50 concentration after 24 hrs by Annexin V/SYTOX Green based flow cytometric analysis (reference value: 0.17%). The assay is classed as functional.
In assay [5] the test system is WM164. Kind of assay: Induction of apoptosis in human WM164 cells assessed as early apoptotic cells at IC50 concentration after 24 hrs by Annexin V/SYTOX Green based flow cytometric analysis (reference value: 2.72%). The assay is classed as functional.
Assay [6] relates to MUGMel1. Kind of assay: Induction of apoptosis in human MUGMel1 cells assessed as viable cells at IC50 concentration after 24 hrs by Annexin V/SYTOX Green based flow cytometric analysis (reference value: 95.13%). In kind it is functional.
The test system of assay [7] is WM164. Kind of assay: Induction of apoptosis in human WM164 cells assessed as effect on BAX mRNA expression at IC50 concentration after 6 to 24 hrs by RT-qPCR analysis. In kind it is functional, cell-based. For orientation: In qPCR the cycle at which signal appears reflects the starting amount.
In the next assay the test system is MUGMel2. Nature of the assay: Induction of apoptosis in human MUGMel2 cells assessed as effect on BAX mRNA expression at IC50 concentration after 6 to 24 hrs by RT-qPCR analysis. The assay is classed as functional, cell-based.
Assay [8] has as its system WM793. Kind of assay: Induction of apoptosis in human WM793 cells assessed as late apoptotic cells at IC50 concentration after 6 hrs by Annexin V/SYTOX Green based flow cytometric analysis (reference value: 0.71%). In kind it is functional.
Assay [9] deals with WM164. Nature of the assay: Induction of apoptosis in human WM164 cells assessed as late apoptotic cells at IC50 concentration after 6 hrs by Annexin V/SYTOX Green based flow cytometric analysis (reference value: 1.41%). The assay is classed as functional.
Assay [10] concerns SBcl2. Kind of assay: Induction of apoptosis in human SBcl2 cells assessed as up regulation of NOXA protein expression at IC50 concentration after 24 hrs by Western blot analysis. The assay is classed as functional, cell-based. (A western blot detects proteins with antibodies after separation by electrophoresis.)
For assay [11], the system named is SBcl2. Nature of the assay: Induction of apoptosis in human SBcl2 cells assessed as necrotic cells at IC50 concentration after 6 hrs by Annexin V/SYTOX Green based flow cytometric analysis (reference value: 0.17%). In kind it is functional.
Assay [12] concerns MUGMel1. Nature of the assay: Induction of apoptosis in human MUGMel1 cells assessed as up regulation of NOXA at IC50 concentration after 6 to 24 hrs by RT-qPCR analysis relative to control. In kind it is functional.
The test system of assay [13] is SBcl2. Nature of the assay: Induction of apoptosis in human SBcl2 cells assessed as early apoptotic cells at IC50 concentration after 6 hrs by Annexin V/SYTOX Green based flow cytometric analysis (reference value: 4.26%). In kind it is functional.
Assay [14] relates to MUGMel1. Nature of the assay: Induction of apoptosis in human MUGMel1 cells assessed as increase in caspase -3 activity at IC50 concentration after 24 hrs by Alexa Fluor 647 antibody based flow cytometric analysis. The assay is classed as functional, cell-based.
In assay [15] the test system is WM164. Kind of assay: Induction of apoptosis in human WM164 cells assessed as increase in caspase -3 activity at IC50 concentration after 24 hrs by Alexa Fluor 647 antibody based flow cytometric analysis. In kind it is functional, cell-based.

Active and inactive are the calls of the source. No cut-off for these calls is given here.

As for `CC(C)=CC[C@@H](OC(=O)C=C(C)C)C1=CC(=O)c2c(O)ccc(O)c2C1=O` [DIMETHYLACRYLSHIKONIN], the Activity in the assay with WM164 [1] is listed as 2.47%; in the assay on SBcl2 [3] it was 70.21%; in the assay on WM793 [4], 0.22%; with WM164 [5], 12.85%; in the assay on MUGMel1 [6] it was 49.48%; in the assay on WM793 [8], 5.72%. The Activity with WM164 [9] is reported as 8.65%; with SBcl2 [11] it was 0.06%; in the assay with SBcl2 [13], 8.44%. Further, the outcome with MUGMel1 [2], with WM164 [7] and with MUGMel2 was inactive. Further, the outcome in the assay on SBcl2 [10], in the assay on MUGMel1 [14] and in the assay on WM164 [15] was Active. Also, the “fold change (FC)” value in the assay on MUGMel1 [12] is reported as 2.4.
